According to patent US20260337212A1, “IP4-4,6 SUBSTITUTED DERIVATIVE COMPOUNDS FOR USE IN THE TREATMENT, INHIBITION OF PROGRESSION, AND PREVENTION OF ECTOPIC CALCIFICATION” (SANIFIT THERAPEUTICS, S.A., priority 2022, published 2026):

Assays:
[1] = system: abcc6a−/− zebrafish larvae; experiment: abcc6a−/− zebrafish model of Pseudoxanthoma elasticum: spinal column hypermineralization (Alizarin Red); assay type: in vivo; settings: 3 to 10 dpf
Protocol: FIG. 16 depicts an analysis of hypermineralization using Alizarin Red staining in 10 dpf abcc6a^−/− zebrafish larvae. The larvae were kept in E3-medium (n=20) and E3-medium supplemented with Compound 27 1 mM (n=18) from 3 to 10 dpf.
A stable CRISPR/Cas9 abcc6a^−/− zebrafish model characterized for spinal column hypermineralization was used for assaying the efficacy of Compound 27 in the treatment of Pseudoxanthoma elasticum (PXE; Van Gils M, et al., J Invest Dermatol […]; 138:2333-2342).
Abcc6a^−/− larvae were treated with Compound 27 at different concentrations (i.e., 100 μM, 300 μM, and 1 mM) for 7 days, starting at 3 days post fertilization (dpf), with daily refreshment of the medium containing the solved compounds. On 10 dpf, the larvae were euthanized and stained with Alizarin Red to visualize the spinal column hypermineralization, using a Leica M165 FC microscope (Leica Microsystems GmbH, Wetzlar, DE). Semi-quantification of calcification was done through image processing with ImageJ […] (Rasband W, Research Services Branch, NIH, Bethesda, MD, US).

[2] = Rat vitamin D3 model: walking ability, forced incremental treadmill test; assay type: in vivo, Sprague Dawley rat
Protocol: FIG. 14 depicts the mean maximum walking distance (±SD) in Sham rats (no VitD3 treatment) and rats treated with vehicle, Compound 27 (5, 15, and 45 mg/kg). Statistical analysis: One-way ANOVA with Fisher's LSD test for post-hoc comparisons. The result of the ANOVA was p<0.0001. (#) indicates significant differences vs. sham, (*) indicates significant differences vs vehicle, (§) indicates significant differences vs Compound 27 5 mg/kg (only applies to other Compound 27 doses), (¥) indicates significant differences vs Compound 27 15 mg/kg (only applies to Compound 27 45 mg/kg), (‡) significant differences vs Compound 27 45 mg/kg, p<0.05.
The model evaluated the effects of Compound 27 on tissue calcification, blood perfusion, and walking ability in rats for a duration of 13 days. Tissue calcification was induced in groups 2-5 from D1 to D3. […] The impact of treatment on tissue calcification, blood perfusion, and walking ability was evaluated. […]
Maximal walking time (MWT) and maximal walking distance (MWD) were assessed by forced incremental treadmill running tests using a two-lane touch screen treadmill device for rats (Cat. No. LE8709TS, Panlab, Harvard Biosciences, Inc., Holliston, MA, US) with a 15% inclination. […]
For group 2, the treadmill assessment started 15 min after dosing. […] MWD (in meters) and MWT (in minutes) were recorded for each animal.

4,6-O-bis(5-acetamidopentyl)-myo-inositol-1,2,3,5-tetrakis(phosphate) octasodium salt [Compound 27]
Reduction of spinal hypermineralization (in words) ([1]; 1 mM in E3-medium, FIG. 16): Significant reduction of spinal hypermineralization
Average reduction of spinal column hypermineralization ([1]; 1 mM in medium): 60%
Physiological calcification and bone formation ([1]; 1 mM in medium): conservation of the physiological calcification and bone formation
Significance (p) of reduced spinal hypermineralization vs untreated ([1]; 1 mM in medium): < 0.001
Relative calcified area ([1]; 1 mM in medium, untreated 35.2): 14.17
Effect on maximum walking distance ([2]; 5, 15, 45 mg/kg s.c. daily, FIG. 14): dose-response effect from 5 mg/kg
Improvement of walking ability ([2]; 15 and 45 mg/kg s.c. daily, as early as D5 after induction): improves the walking ability of rats administered with vitamin D as early as D5 after the induction of the PAD disease, in a dose-response manner
